The values below come from patent US20250129080A1, “COMPOSITIONS AND METHODS OF USING THE SAME FOR TREATMENT OF NEURODEGENERATIVE AND MITOCHONDRIAL DISEASE” (Mitokinin, Inc., priority 2021, published 2025).

pEC50: −log10 of the molar value.

In series [1] the test system is HeLa cells expressing mt-Keima and YFP-Parkin (HeLa MKYP). Nature of the series: Human mt-Keima mitophagy assay. The series is classed as cell-based. The following applies: 16 hrs with compound, then FCCP/oligomycin for 6 hours, FACS. The protocol:
Briefly, HeLa cells expressing mt-Keima and YFP-Parkin (HeLa MKYP) were plated at 10,000 cells/well in 96 well plates along with compounds at various concentrations. Following 16 hrs of incubation, cells were treated with […] FCCP/oligomycin for 6 hours, then analyzed via FACS for the presence of mitochondria in lysosomes (as determined by an emissions spectrum shift from the pH-sensitive mt-Keima tag).

For series [2], the system named is SKOV3 cells. Nature of the series: In vitro mitosafety (glucose/galactose) assay. The format is cell-based. The following applies: highest mito-safe dose (gal/glc >0.80, IC20, SKOV3 cells, 20 hours) divided by mt-Keima EC50.
Protocol: Briefly, SKOV3 cells (ATCC HTB-77) were plated in DMEM (Corning 10-013-CV) medium containing 25 mM glucose or DMEM with no glucose (Gibco 11966-025) supplemented with 10 mMV galactose at 9,000 cells/well in 96 well plates (Corning costar 3610). 24 hrs later, compounds, in DMSO, were added at various concentrations to a final 0.1% DMSO for all wells. […] After a 15 minute incubation cellular ATP levels were read out using a Promega GloMax® DiscoverMicroplate Reader.
The ratio of relative CellTiter-Glo values from cells grown in galactose to cells grown in glucose was determined (gal/glc ratio). The gal/glc ratio vs concentration is then graphed, and non-linear regression is used to find the highest concentration of MTK compound at which gal/glc >0.80 (the “highest mito-safe dose”, or IC20).

On to `FC(F)OC1CN([C@H]2COc3ccccc3[C@@H]2Nc2ncnc3[nH]c(C4CC4)cc23)C1` (relative stereo) [EP-0041832, 6-Cyclopropyl-N-[Trans-3-[3-(Difluoromethoxy)Azetidin-1-Yl]Chroman-4-Yl]-7H-Pyrrolo[2,3-D]Pyrimidin-4-Amine], for which the pEC50 in series [1] (Homo sapiens, HeLa) was 6.46. Besides, the “Mito-Safety Index (highest safe dose/EC50)” value (from here on “Mito-Safety Index”) in series [2] is 72.23.

In the case of `FC(F)(F)C1CN([C@H]2COc3ccccc3[C@@H]2Nc2ncnc3[nH]c(C4CC4)cc23)CCO1` (single isomer, unassigned) [EP-0042928], the pEC50 in series [1] (Homo sapiens, HeLa) was 6.77. The “Mito-Safety Index” value in series [2] stood at 42.17.

`c1ccc2c(c1)OC[C@H](N1CCC3(CCCO3)C1)[C@H]2Nc1ncnc2[nH]c(C3CC3)cc12` (single isomer, unassigned) [EP-0042934]: the pEC50 in series [1] is 7.46. For the same compound, the “Mito-Safety Index” value in series [2] stood at 55.78.

As to `c1ccc2c(c1)OC[C@H](N1CCC3(CCCO3)C1)[C@H]2Nc1ncnc2[nH]c(C3CC3)cc12` (single isomer, unassigned) [EP-0042935], the “Mito-Safety Index” value in series [2] came to 211.76.

For the compound `CC1(C#N)CCN([C@H]2COc3ccccc3[C@@H]2Nc2ncnc3[nH]c(C(F)(F)F)cc23)C1` (single isomer, unassigned) [EP-0043816], the negative-log EC50 (pEC50) in series [1] (Homo sapiens, HeLa) is 6.96. For the same compound, the “Mito-Safety Index” value in series [2] is 75.4.

As for `OC1([C@H]2COc3ccccc3[C@@H]2Nc2ncnc3[nH]c(C4CC4)cc23)CCOCC1` [EP-0042202, 4-[(3R,4R)-4-[(6-Cyclopropyl-7H-Pyrrolo[2,3-D]Pyrimidin-4-Yl)Amino]Chroman-3-Yl]Tetrahydropyran-4-Ol], the negative-log EC50 (pEC50) in series [1] (Homo sapiens, HeLa) was 6.67. In addition, the “Mito-Safety Index” value in series [2] was found to be 116.5.

As for `OC1([C@H]2COc3ccccc3[C@@H]2Nc2ncnc3[nH]c(C(F)(F)F)cc23)CCOCC1` [EP-0042356, 4-[(3R,4R)-4-[[6-(Trifluoromethyl)-7H-Pyrrolo[2,3-D]Pyrimidin-4-Yl]Amino]Chroman-3-Yl]Tetrahydropyran-4-Ol], the pEC50 in series [1] (Homo sapiens, HeLa) was 6.66. Further, the “Mito-Safety Index” value in series [2] worked out at 114.63.

With `F[C@@H]1CCN([C@H]2COc3ccccc3[C@@H]2Nc2ncnc3[nH]c(C4CC4)cc23)C1` [EP-0042534, 6-Cyclopropyl-N-((3R,4S)-3-((R)-3-Fluoropyrrolidin-1-Yl)Chroman-4-Yl)-7H-Pyrrolo[2,3-D]Pyrimidin-4-Amine], the pEC50 in series [1] (Homo sapiens, HeLa) is 6.46. The “Mito-Safety Index” value in series [2] is on record as 71.21.

In the case of `c1ccc2c(c1)OC[C@H](N1CCOC3(CC3)C1)[C@H]2Nc1ncnc2[nH]c(C3CC3)cc12` [EP-0042535, N-((3R,4S)-3-(4-Oxa-7-Azaspiro[2.5]Octan-7-Yl)Chroman-4-Yl)-6-Cyclopropyl-7H-Pyrrolo[2,3-D]Pyrimidin-4-Amine], the negative-log EC50 (pEC50) in series [1] (Homo sapiens, HeLa) is 6.61. Also, the “Mito-Safety Index” value in series [2] was determined as 102.55.

As to `F[C@H]1CCN([C@H]2COc3ccccc3[C@@H]2Nc2ncnc3[nH]c(C4CC4)cc23)C1` [EP-0042536, 6-Cyclopropyl-N-((3R,4S)-3-((S)-3-Fluoropyrrolidin-1-Yl)Chroman-4-Yl)-7H-Pyrrolo[2,3-D]Pyrimidin-4-Amine], the pEC50 in series [1] (Homo sapiens, HeLa) was 6.81. Also, in series [2], the “Mito-Safety Index” value amounted to 89.78.

For `CO[C@H]1CCCN([C@H]2COc3ccccc3[C@@H]2Nc2ncnc3[nH]c(C4CC4)cc23)C1` [EP-0042537, 6-Cyclopropyl-N-((3R,4S)-3-((S)-3-Methoxypiperidin-1-Yl)Chroman-4-Yl)-7H-Pyrrolo[2,3-D]Pyrimidin-4-Amine], the negative-log EC50 (pEC50) in series [1] (Homo sapiens, HeLa) was 6.57. For the same compound, in series [2], the “Mito-Safety Index” value is listed as 37.03.

Turning to `c1ccc2c(c1)OC[C@H](N1CCCC1)[C@H]2Nc1ncnc2[nH]c(C3CC3)cc12` [EP-0042659, 6-Cyclopropyl-N-((3R,4S)-3-(Pyrrolidin-1-Yl)Chroman-4-Yl)-7H-Pyrrolo[2,3-D]Pyrimidin-4-Amine], the negative-log EC50 (pEC50) in series [1] (Homo sapiens, HeLa) is 6.60. In addition, in series [2], the “Mito-Safety Index” value is given as 54.54.

Take `FC1(F)CCN([C@H]2COc3ccccc3[C@@H]2Nc2ncnc3[nH]c(C4CC4)cc23)C1` [EP-0042660, 6-Cyclopropyl-N-((3R,4S)-3-(3,3-Difluoropyrrolidin-1-Yl)Chroman-4-Yl)-7H-Pyrrolo[2,3-D]Pyrimidin-4-Amine]: in series [1] (Homo sapiens, HeLa), the pEC50 is 6.86. Further, in series [2], the “Mito-Safety Index” value was 179.63.

`N#C[C@H]1CCN([C@H]2COc3ccccc3[C@@H]2Nc2ncnc3[nH]c(C4CC4)cc23)C1` [EP-0042930]: the pEC50 in series [1] (Homo sapiens, HeLa) was 7.42. In addition, the “Mito-Safety Index” value in series [2] is 105.8.

Consider `FC(F)(F)c1cc2c(N[C@H]3c4ccccc4OC[C@@H]3N3CCOC4(CC4)C3)ncnc2[nH]1` [EP-0042970, N-((3R,4S)-3-(4-Oxa-7-Azaspiro[2.5]Octan-7-Yl)Chroman-4-Yl)-6-(Trifluoromethyl)-7H-Pyrrolo[2,3-D]Pyrimidin-4-Amine], for which the negative-log EC50 (pEC50) in series [1] (Homo sapiens, HeLa) was 6.39. In series [2], the “Mito-Safety Index” value was 61.94.

On to `F[C@H]1CCN([C@H]2COc3ccccc3[C@@H]2Nc2ncnc3[nH]c(C(F)(F)F)cc23)C1` [EP-0042972, N-((3R,4S)-3-((S)-3-Fluoropyrrolidin-1-Yl)Chroman-4-Yl)-6-(Trifluoromethyl)-7H-Pyrrolo[2,3-D]Pyrimidin-4-Amine], for which, in series [1] (Homo sapiens, HeLa), the negative-log EC50 (pEC50) was 6.41. The “Mito-Safety Index” value in series [2] is 62.14.

For the compound `FC(F)(F)c1cc2c(N[C@H]3c4ccccc4OC[C@@H]3C3(F)CCOCC3)ncnc2[nH]1` [EP-0043236, N-[(3R,4R)-3-(4-Fluorotetrahydropyran-4-Yl)Chroman-4-Yl]-6-(Trifluoromethyl)-7H-Pyrrolo[2,3-D]Pyrimidin-4-Amine], the negative-log EC50 (pEC50) in series [1] (Homo sapiens, HeLa) is 6.38. Besides, in series [2], the “Mito-Safety Index” value came out at 59.18.

For `N#C[C@H]1CCN([C@H]2COc3ccccc3[C@@H]2Nc2ncnc3[nH]c(C(F)(F)F)cc23)C1` [EP-0043263, (S)-1-((3R,4S)-4-((6-(Trifluoromethyl)-7H-Pyrrolo[2,3-D]Pyrimidin-4-Yl)Amino)Chroman-3-Yl)Pyrrolidine-3-Carbonitrile], the negative-log EC50 (pEC50) in series [1] (Homo sapiens, HeLa) is 7.01. Besides, the “Mito-Safety Index” value in series [2] worked out at 120.52.

As for `N#C[C@@H]1CCN([C@H]2COc3ccccc3[C@@H]2Nc2ncnc3[nH]c(C(F)(F)F)cc23)C1` [EP-0043264, (R)-1-((3R,4S)-4-((6-(Trifluoromethyl)-7H-Pyrrolo[2,3-D]Pyrimidin-4-Yl)Amino)Chroman-3-Yl)Pyrrolidine-3-Carbonitrile], in series [1] (Homo sapiens, HeLa), the pEC50 was 6.89. Also, in series [2], the “Mito-Safety Index” value was 91.68.

Take `N#C[C@H]1CCN([C@H]2COc3ccccc3[C@@H]2Nc2ncnc3[nH]c(C4CC4)cc23)C1` [EP-0043271, (S)-1-((3R,4S)-4-((6-Cyclopropyl-7H-Pyrrolo[2,3-D]Pyrimidin-4-Yl)Amino)Chroman-3-Yl)Pyrrolidine-3-Carbonitrile]: the negative-log EC50 (pEC50) in series [1] was 7.19. Further, the “Mito-Safety Index” value in series [2] came to 74.90.

As to `CO[C@H]1CCCN([C@H]2COc3ccccc3[C@@H]2Nc2ncnc3[nH]c(C(F)(F)F)cc23)C1` [EP-0043439, N-((3R,4S)-3-((S)-3-Methoxypiperidin-1-Yl)Chroman-4-Yl)-6-(Trifluoromethyl)-7H-Pyrrolo[2,3-D]Pyrimidin-4-Amine], in series [1] (Homo sapiens, HeLa), the negative logarithm of the EC50 (pEC50) was 6.35. In series [2], the “Mito-Safety Index” value worked out at 48.93.

With `FC(F)(F)c1cc2c(N[C@H]3c4ccccc4OC[C@@H]3N3CCCC3)ncnc2[nH]1` [EP-0043440, N-((3R,4S)-3-(Pyrrolidin-1-Yl)Chroman-4-Yl)-6-(Trifluoromethyl)-7H-Pyrrolo[2,3-D]Pyrimidin-4-Amine], the pEC50 in series [1] (Homo sapiens, HeLa) is 6.43. For the same compound, in series [2], the “Mito-Safety Index” value is reported as 60.76.

Turning to `CO[C@@H]1CCN([C@H]2COc3cc(F)ccc3[C@@H]2Nc2ncnc3[nH]c(C(F)(F)F)cc23)C1` [EP-0043690, N-((3R,4S)-7-fluoro-3-((R)-3-methoxypyrrolidin-1-yl)chroman-4-yl)-6-(trifluoromethyl)-7H-pyrrolo[2,3-d]pyrimidin-4-amine], the negative logarithm of the EC50 (pEC50) in series [1] (Homo sapiens, HeLa) was 6.85. In addition, in series [2], the “Mito-Safety Index” value was 68.6.

With `C[C@@H]1CCN([C@H]2COc3ccccc3[C@@H]2Nc2ncnc3[nH]c(C(F)(F)F)cc23)C1` [EP-0043821, N-((3R,4S)-3-((R)-3-methylpyrrolidin-1-yl)chroman-4-yl)-6-(trifluoromethyl)-7H-pyrrolo[2,3-d]pyrimidin-4-amine], in series [1] (Homo sapiens, HeLa), the pEC50 is 7.52. For the same compound, the “Mito-Safety Index” value in series [2] was 70.0.

In the case of `C[C@@H]1CN([C@H]2COc3c(F)cccc3[C@@H]2Nc2ncnc3[nH]c(C(F)(F)F)cc23)CCO1` [EP-0043827, N-((3R,4S)-8-fluoro-3-((R)-2-methylmorpholino)chroman-4-yl)-6-(trifluoromethyl)-7H-pyrrolo[2,3-d]pyrimidin-4-amine], the negative-log EC50 (pEC50) in series [1] (Homo sapiens, HeLa) is 6.64. Also, the “Mito-Safety Index” value in series [2] came to 108.7.

For the compound `C[C@@H]1CN([C@H]2COc3cc(F)ccc3[C@@H]2Nc2nccc3[nH]c(C(F)(F)F)cc23)CCO1` [EP-0043830, N-((3R,4S)-7-fluoro-3-((R)-2-methylmorpholino)chroman-4-yl)-2-(trifluoromethyl)-1H-pyrrolo[3,2-c]pyridin-4-amine], the negative-log EC50 (pEC50) in series [1] (Homo sapiens, HeLa) is 7.30. Further, in series [2], the “Mito-Safety Index” value stood at 118.0.

As to `FC(F)C1CN([C@H]2COc3ccccc3[C@@H]2Nc2ncnc3[nH]c(C(F)(F)F)cc23)C1` [EP-0043831, N-((3R,4S)-3-(3-(difluoromethyl)azetidin-1-yl)chroman-4-yl)-6-(trifluoromethyl)-7H-pyrrolo[2,3-d]pyrimidin-4-amine], the pEC50 in series [1] (Homo sapiens, HeLa) was 6.22. Also, the “Mito-Safety Index” value in series [2] is given as 41.7.

As a reminder, the pEC50 is −log10 of the EC50, conventionally taken in molar units.
